Source: ChEMBL document CHEMBL1128422 (J Med Chem, 1995)

Organism: Oryctolagus cuniculus
Assay: Ability to stimulate contraction of the rabbit iris sphincter smooth muscle using smooth muscle contraction assay
Assay type: functional
Details: Muscle tissue
An EC50 of 0.54 nM was found for CSCC[C@H](NC(=O)[C@H](CC(C)C)NC(=O)CNC(=O)[C@H](Cc1ccccc1)NC(=O)[C@@H](NC(=O)[C@H](CCC(N)=O)NC(=O)[C@H](CCC(N)=O)NC(=O)[C@@H]1CCCN1C(=O)[C@H](CCCCN)NC(=O)[C@@H]1CCCN1C(=O)[C@@H](N)CCCN=C(N)N)[C@H](C)c1ccccc1)C(N)=O in this work. An EC50 of 0.18 nM was found for CSCC[C@H](NC(=O)[C@H](CC(C)C)NC(=O)CNC(=O)[C@@H](NC(=O)[C@@H](NC(=O)[C@H](CCC(N)=O)NC(=O)[C@H](CCC(N)=O)NC(=O)[C@@H]1CCCN1C(=O)[C@H](CCCCN)NC(=O)[C@@H]1CCCN1C(=O)[C@@H](N)CCCN=C(N)N)[C@@H](C)c1ccccc1)[C@@H](C)c1ccccc1)C(N)=O in this work. An EC50 of 0.28 nM was found for CSCC[C@H](NC(=O)[C@H](CC(C)C)NC(=O)CNC(=O)[C@@H](NC(=O)[C@@H](NC(=O)[C@H](CCC(N)=O)NC(=O)[C@H](CCC(N)=O)NC(=O)[C@@H]1CCCN1C(=O)[C@H](CCCCN)NC(=O)[C@@H]1CCCN1C(=O)[C@@H](N)CCCN=C(N)N)[C@H](C)c1ccccc1)[C@@H](C)c1ccccc1)C(N)=O in this work. An EC50 of 10 nM was found for CSCC[C@H](NC(=O)[C@H](CC(C)C)NC(=O)CNC(=O)[C@@H](NC(=O)[C@@H](NC(=O)[C@H](CCC(N)=O)NC(=O)[C@H](CCC(N)=O)NC(=O)[C@@H]1CCCN1C(=O)[C@H](CCCCN)NC(=O)[C@@H]1CCCN1C(=O)[C@@H](N)CCCN=C(N)N)[C@H](C)c1ccccc1)[C@H](C)c1ccccc1)C(N)=O in this work. An EC50 of 0.58 nM was found for CSCC[C@H](NC(=O)[C@H](CC(C)C)NC(=O)CNC(=O)[C@@H](NC(=O)[C@@H](NC(=O)[C@H](CCC(N)=O)NC(=O)[C@H](CCC(N)=O)NC(=O)[C@@H]1CCCN1C(=O)[C@H](CCCCN)NC(=O)[C@@H]1CCCN1C(=O)[C@@H](N)CCCN=C(N)N)[C@@H](C)c1ccccc1)[C@H](C)c1ccccc1)C(N)=O in this work. An EC50 of 0.59 nM was found for CSCC[C@H](NC(=O)[C@H](CC(C)C)NC(=O)CNC(=O)[C@H](Cc1ccccc1)NC(=O)[C@@H](NC(=O)[C@H](CCC(N)=O)NC(=O)[C@H](CCC(N)=O)NC(=O)[C@@H]1CCCN1C(=O)[C@H](CCCCN)NC(=O)[C@@H]1CCCN1C(=O)[C@@H](N)CCCN=C(N)N)[C@@H](C)c1ccccc1)C(N)=O in this work. An EC50 of 0.13 nM was found for CSCC[C@H](NC(=O)[C@H](CC(C)C)NC(=O)CNC(=O)[C@@H](NC(=O)[C@H](Cc1ccccc1)NC(=O)[C@H](CCC(N)=O)NC(=O)[C@H](CCC(N)=O)NC(=O)[C@@H]1CCCN1C(=O)[C@H](CCCCN)NC(=O)[C@@H]1CCCN1C(=O)[C@@H](N)CCCN=C(N)N)[C@@H](C)c1ccccc1)C(N)=O in this work. An EC50 of 5.76 nM was found for CSCC[C@H](NC(=O)[C@H](CC(C)C)NC(=O)CNC(=O)[C@@H](NC(=O)[C@H](Cc1ccccc1)NC(=O)[C@H](CCC(N)=O)NC(=O)[C@H](CCC(N)=O)NC(=O)[C@@H]1CCCN1C(=O)[C@H](CCCCN)NC(=O)[C@@H]1CCCN1C(=O)[C@@H](N)CCCN=C(N)N)[C@H](C)c1ccccc1)C(N)=O in this work.
